This is an account of results in patent US20040005294A1, “IGFBP-3 in the diagnosis and treatment of cancer” (priority 2002, published 2004).

One test deals with NHBE cells. Nature of the test: Cell cycle analysis by flow cytometry, NHBE cells. The test is classed as cell-based, human. The note with it: 10^−7 M, 3 days. The method, then: NHBE and 1799 cells were plated at a concentration of 2×10^5 cells/well in six-well plates. The next day, cells were treated with deguelin (various concentrations) or DMSO (0.1%) for 3 days to achieve maximal antiproliferative effects (determined from growth curves). All cells (nonadherent and adherent) were harvested, fixed with 1% paraformaldehyde and 70% ethanol, stained with 50 μg/mL propidium iodide, and subjected to flow cytometric analysis to determine the percentage of cells in specific phases of the cell cycle (G1, S, and G2/M) as described (Sun et al., 1997). Flow cytometric analysis was performed using a Coulter EPICS Profile II flow cytometer (Coulter Corp., Miami, Fla.) equipped with a 488-nm argon laser. Approximately 10 000 events (cells) were evaluated for each sample. Two independent experiments were performed and one is presented.

The test system of a further test is ERK1/2 in 1799 cells. Kind of test: Immune complex kinase assay for ERK1/2. The test is classed as cell-based, human. The note with it: 10^−7 M, 0-24 h, then 50 ng/mL IGF-I for 15 min. How it is done: (§1) Approximately 5×10^6 1799 cells were treated with 10^−7 M deguelin or 0.1% DMSO for various time periods in the absence of any additional stimulatory growth factors. The cells were then treated with 50 ng/mL IGF-I for 15 minutes to activate MAPK. Total cell extracts were prepared in lysis buffer (Lonardo et al. 2002), and ERK-1/2 or c-Jun N-terminal kinase (JNK) were immunoprecipitated from 100 μg of each cell extract using antibodies (1 μg) that recognize ERK1/2 or JNK (Santa Cruz Biotechnology) and protein-A sepharose beads (20 μL) (Amersham Pharmacia Biotech). Kinase assays were performed by incubating the beads with 30 μL of kinase buffer to which 5 μCi of [γ^32P]ATP (2000 cpm/pmol) and 1 μg of substrate (myelin basic protein [MBP; Calbiochem, La Jolla, Calif.] or GST-cJun [Santa Cruz Biotechnology]) were added, as previously described (Lee et al., 2002). The samples were suspended in Laemmli buffer, boiled for 5 min, and then analyzed by SDS-polyacrylamide gel clectrophoresis. The gel was dried and autoradiographed. Total cell lysates from Jurkat cells (Upstate Biotechnology, Inc.) and H1299 NSCLC treated with 50 ng/mL IGF-I for 15 min were used as positive controls. Changes in the level of phosphorylation in MBP or GST-cJun reflect changes in Erk1/2 and JNK activity, respectively.

The next test has as its system 1799 cells. Kind of test: Apoptosis by APO-BrdU (modified TUNEL) flow cytometry, 1799 cells. The test is classed as cell-based, human. The method, then:
NHBE, premalignant (1799 and 1198), and malignant (1170-1) HBE (2×10^6) cells were exposed to various doses of deguelin or to DMSO (0.1%) for 3 days. Apoptosis was assessed by morphology, by a flow cytometry-based, modified terminal deoxynucleotidyl transferase dUTP nick end labeling (TUNEL) assay, and by the detection of fragmented DNA. For morphology, live cells were observed by light microscopy using a ×100 objective. For TUNEL analysis, both adherent and nonadherent cells were harvested and pooled, fixed with 1% paraformaldehyde and 70% ethanol, and processed using the APO-BrdU staining kit (Phoenix Flow Systems, San Diego, Calif.), a modified TUNEL assay, as described (Lee et al., 2002). Cells treated with DMSO were used to gate the control nonapoptotic populations and as a reference for cells treated with deguelin. An internal control (HL-60 cells treated with camptothecin to induce apoptosis) provided in the apoptosis detection kit was also used to ensure that the TUNEL reaction was occurring during the staining procedure. For the detection of fragmented nucleosomal DNA, cells were processed using the TACS apoptotic DNA laddering kit (Trevigen Inc., Gaithersburg, Md.), according to the manufacturer's recommended protocol.
To determine whether deguelin-induced antiproliferative effects on premalignant HBE cells were mediated through the inhibition of the PI3K/Akt pathway, 2×10^5 1799 cells/well or 1×10 ^6 squamous HBE cells/well in six-well plates were infected with 5×10 ^3 particles/cell of a control virus (Ad5CMV) or with 1×10^3 or 5×10^3 particles/cell of Ad5CMV-MyrAkt-HA, an adenoviral vector that expresses a constitutively active Akt. (MyrAkt) in KSFM. After 1 day of infection, cells were treated with 10^−7M or 10^−6M deguelin, 2×10^−6 M or 4×10^−6M N-(4-hydroxyphenyl)retinamide (4-HPR), or 0.1% DMSO as a control and then incubated for 1 or 2 days. Apoptosis was analyzed using the APO-BrdU staining kit for TUNEL, Western blot analyses for caspase-3, and the cleavage of PARP.
For orientation: In flow cytometry, cells or beads pass a laser one at a time.

The test system of test [1] is premalignant and malignant HBE cell lines. Nature of the test: MTT proliferation assay, premalignant and malignant HBE cell lines. The note with it: Homo sapiens, range tested 10^−9 M to 10^−7 M, read-out: IC50 (growth inhibition). The test is classed as cell-based. The method, then:
To measure the effects of deguelin on cell proliferation, NHBE, 1799, 1198, 1170-1, and HB56B cells were plated at concentrations of 2×10^3 to 4×10^3 cells/well in 96-well plates. The next day, cells were treated with either 0.1% DMSO as a diluent control or various concentrations of deguelin (final DMSO concentration=0.1%). At the end of the assay time period, cell proliferation was measured by the 3-(4,5-dimethylthiazol-2-yl)-2,5-diphenyltetrazolium bromide (MTT) assay as described (Lee et al., 2002). Six replicate wells were used for each analysis, and data from replicate wells are presented as means with 95% confidence intervals (CIs). For some experiments, the drug concentration required to inhibit cell growth by 50% (IC50) was determined by interpolation from dose-response curves. At least three independent experiments were performed.
On the technique in general: Tetrazolium assays rely on reduction of a dye to a coloured formazan, in cell work by metabolically active cells.

A further test has as its system JNK in 1799 cells. Kind of test: Immune complex kinase assay for JNK. The test is classed as cell-based, human. The note with it: 10^−7 M. How it is done:
as §1

For the molecule `COc1cc2c(cc1OC)[C@@H]1C(=O)c3ccc4c(c3O[C@@H]1CO2)C=CC(C)(C)O4` [deguelin, Deguelin], in the test with NHBE cells, the cell cycle distribution result is reported as “No detectable cell cycle changes”. Also, in the test with ERK1/2 in 1799 cells, the ERK1/2 activity result is reported as “no discernible effect”. The cells undergoing apoptosis result in the test with 1799 cells (10^−7 M, 2 days, 1799 cells infected with Ad5CMV-MyrAkt-HA) is “less than 10%”; in the test with 1799 cells (10^−7 M, 2 days, 1799 cells uninfected or infected with control adenovirus), “approximately 40%”; in the test on 1799 cells (10^−7 M, 3 days), 92.2%; in the test on 1799 cells (10^−8 M, 3 days), 68.5%; with 1799 cells (10^−9 M, 3 days) it was “approximately 3.3%”. Besides, the IC50 (as a rule, the midpoint of a concentration-inhibition curve) in test [1] is under 10 nM. In the test with JNK in 1799 cells, the JNK activity result is “not affected”.
